Data on three molecules can be found in ChEMBL document CHEMBL4270500, “From the hive: Honey, a novel weapon against cancer” (Eur J Med Chem, 2017).

One assay concerns KYSE-510. The assay is described as follows: Cytotoxicity in human KYSE-510 cells assessed as reduction in cell viability incubated for 24 to 72 hrs by MTT assay. It is filed as functional, cell-based. In general terms: Formazan colour is commonly taken as a measure of viable cells.
Assay [1] in a line: Cytotoxicity in human M17 cells assessed as reduction in cell viability incubated for 48 hrs by MTT assay. It is filed as functional, cell-based.
Another assay deals with HeLa. The assay is described as follows: Cytotoxicity in human HeLa cells assessed as reduction in cell viability incubated for 24 to 72 hrs by MTT assay. Format: functional, cell-based.
Assay [2] in a line: Cytotoxicity in human SP6.5 cells assessed as reduction in cell viability incubated for 48 hrs by MTT assay. It is filed as functional, cell-based.
In another assay the test system is Caco-2. In words: Inhibition of cell proliferation of human Caco2 cells at 1500 umol/L incubated for 1 to 3 days by trypan blue dye based hemocytometry relative to untreated control. Format: functional.
Assay [3] concerns Ehrlich. In words: Antitumour activity against mouse EAC implanted in BALB/c mouse assessed as inhibition of solid tumor growth at 100 mg/kg, ip dosed consecutively from day 1 to 9 relative to untreated control. It is filed as functional. Particulars: 24 h, read-out: TGI.
Assay [4] has as its system Ehrlich. In words: Antitumour activity against mouse EAC implanted in BALB/c mouse assessed as inhibition of tumor growth at 100 mg/kg, ip dosed consecutively from day 1 to 9 relative to untreated control. Format: functional. Conditions: 24 h, read-out: TGI.

The structures appear in SMILES notation.

A word on the IC50: it is the point on the concentration scale where inhibition reaches its midpoint. Turning to `O=c1cc(-c2ccccc2)oc2cc(O)cc(O)c12` [CHRYSIN], the concentration for half-maximal inhibition (IC50) in the assay on KYSE-510 was found to be 63 µM; in assay [1], 35.8 µM; in the assay on HeLa, 14.2 µM; in assay [2] it was 28.3 µM.

As a reminder, the inhibition is the share of the control response that was lost under treatment. The molecule `O=C(O)/C=C/c1ccc(O)cc1` [COUMARIC ACID] displayed an inhibition at 1500 µM in the assay on Caco-2 of 43 to 75%.

In the case of `C=CCc1ccc(O)c(OC)c1` [EUGENOL], the inhibition in vivo at 100 mg/kg was 24.4% in the assay with Ehrlich [3] and 28.9% in the assay with Ehrlich [4].
